Patent publication US20240376124A1, “Macrocyclic Kinase Inhibitors” (Incyte Corporation, priority 2023, published 2024)
Values joined by “and” are separate entries in the source; they are usually repeats but may differ in a detail not shown here. Equal values may be shown once.

What was measured:
[1] = molecular target: T1, catalytic domain (JH1, amino acids 826-1132) of human JAK2 (Homo sapiens, UniProt O60674); assay: JAK2 LanthaScreen JH1 binding assay; conditions: JAK2 JH1, 50 nM tracer; read-out: JH1BIND IC50
T1 construct: catalytic domain (JH1, amino acids 826-1132) of human JAK2; FLAG (N); purchased Carna Biosciences 08-445-20N; host or cells: baculovirus expression system
Description: Example A. JAK2 LanthaScreen […] Binding Assay
JAK2 JH1 binding assay utilizes catalytic domain (JH1, amino acids 826-1132) of human JAK2 expressed as N-terminal FLAG-tagged, biotinylated protein in a baculovirus expression system (Carna Biosciences, Product #08-445-20N). The assay was conducted in black 384-well polystyrene plates in a final reaction volume of 20 μL. JAK2 JH1 (1.5 nM) was incubated with compounds (100 nL serially diluted in DMSO) in the presence of 50 nM fluorescent JAK2-JH1 tracer and 0.5 nM Streptavidin-Tb cryptate (Cisbio Part #610SATLB) in assay buffer (50 mM Tris, pH=7.5, 10 mM MgCl2, 0.01% Brij-35, 0.1% BSA, 1 mM EGTA, […] and 5 mM DTT). Non-specific binding was accessed in the presence of 2 mM ATP. After incubation for 2 hours at 25° C., LanthaScreen signals were read on a PHERAstar FS plate reader (BMG LABTECH).
Data was analyzed with IDBS XLfit and GraphPad Prism 5.0 software using a four parameter dose response curve to determine IC50 for each compound.

[2] = molecular target: T2, pseudo-kinase domain (JH2, amino-acids 536-812) of human V617F mutant JAK2 (Homo sapiens, UniProt O60674, F794H/V617F/W659A/W777A); assay: JAK2 LanthaScreen JH2-V617F Binding Assay; conditions: 50 nM tracer, read-out: JH2BINDING—V617F IC50
T2 construct: pseudo-kinase domain (JH2, amino-acids 536-812 with 3 surface mutations W659A, W777A, F794H); His (C); purchased BPS Bioscience 79498; host or cells: baculovirus expression system
Description: Example C. JAK2 LanthaScreen JH2-V617F Binding Assay
(§1) JAK2 JH2-V617F binding assay utilizes pseudo-kinase domain (JH2, amino-acids 536-812 with 3 surface mutations W659A, W777A, F794H) of human V617F mutant JAK2 expressed as C-terminal His-Avi-tagged, biotinylated protein in a baculovirus expression system (BPS Bioscience, Catalog #79498). The assay was conducted in black 384-well polystyrene plates in a final reaction volume of 20 μL. JAK2 JH2-V617F (0.26 nM) was incubated with compounds (100 nL serially diluted in DMSO) in the presence of 50 nM Fluorescent JAK2-JH2 Tracer (MedChem Express Catalog #HY-102055) and 0.25 nM Streptavidin-Tb cryptate (Cisbio Part #610SATLB) in assay buffer (50 mM Tris, pH=7.5, 10 mM MgCl2, 0.01% Brij-35, 0.1% BSA, 1 mM EGTA, 5% Glycerol and 5 mM DTT). Non-specific binding was accessed in the presence of 2 mM ATP. After incubation for 1 hour at 25° C., LanthaScreen signals were read on a PHERAstar FS plate reader (BMG LABTECH). Data was analyzed with IDBS XLfit and GraphPad Prism 5.0 software using a four parameter dose response curve to determine IC50 for each compound.

[3] = molecular target: T3, pseudo-kinase domain (JH2, amino-acids 536-812) of human Wild Type JAK2 (Homo sapiens, UniProt O60674, F794H/W659A/W777A); assay: JAK2 LanthaScreen JH2-WT Binding Assay; conditions: 50 nM tracer, read-out: JH2BIND_WT IC50
T3 construct: pseudo-kinase domain (JH2, amino-acids 536-812 with 3 surface mutations W659A, W777A, F794H); His (C); purchased BPS Bioscience 79463; host or cells: baculovirus expression system
Description: Example B. JAK2 LanthaScreen JH2-WT Binding Assay
as §1, with “JH2-WT” for “JH2-V617F”, “Wild Type” for “V617F mutant”, “#79463).” for “#79498).”, “JH2-WT (0.145” for “JH2-V617F (0.26”

[4] = molecular target: T4, catalytic domain (JH1, amino acids 808-1132) of human JAK2 (Homo sapiens, UniProt O60674); assay: JAK2 HTRF Enzyme Activity Assay; type: biochemical; conditions: ATP 30 μM; read-out: ENZ 30UMATP IC50
T4 construct: catalytic domain (JH1, amino acids 808-1132) of human JAK2; His (N); purchased BPS Bioscience 40450; host or cells: baculovirus expression system
Description: Example D. JAK2 HTRF Enzyme Activity Assay
JAK2 enzyme activity assays utilize catalytic domain (JH1, amino acids 808-1132) of human JAK2 expressed as N-terminal His-tagged protein in a baculovirus expression system (BPS Bioscience, Catalog #40450). The assays was conducted in black 384-well polystyrene plates in a final reaction volume of 20 μL. JAK2 (0.015 nM) was incubated with compounds (100 nL serially diluted in DMSO) in the presence of ATP (30 μM or 1 mM) and 500 nM Biotin-labeled EQEDEPEGDYFEWLE (SEQ ID NO.: 1) peptide (BioSource International, custom synthesis) in assay buffer (50 mM Tris, pH=7.5, 10 mM MgCl2, 0.01% Brij-35, 0.1% BSA, 1 mM EGTA, 5% Glycerol and 5 mM DTT) for 60 minutes at 25° C. The reactions were stopped by the addition of 10 μL of detection buffer (50 mM Tris, pH 7.8, 0.5 mg/mL BSA, 150 mM NaCl), supplemented with EDTA, LANCE Eu-W1024 anti-phosphotyrosine (PY20), (PerkinElmer, Catalog #AD0067) and Streptavidin SureLight APC (PerkinElmer Catalog #CR130-100), for a final concentration of 15 mM, 1.5 nM and 75 nM, respectively. HTRF signals were read after 30 minutes incubation at room temperature on a PHERAstar FS plate reader (BMG LABTECH). Data was analyzed with IDBS XLfit and GraphPad Prism 5.0 software using a four parameter dose response curve to determine IC50 for each compound. The compounds of the disclosure were tested in one or more of the assays described in Examples A-D, and the resulting data are shown in Table A.

T3 sequence (O60674 536-812 W659A/W777A/F794H): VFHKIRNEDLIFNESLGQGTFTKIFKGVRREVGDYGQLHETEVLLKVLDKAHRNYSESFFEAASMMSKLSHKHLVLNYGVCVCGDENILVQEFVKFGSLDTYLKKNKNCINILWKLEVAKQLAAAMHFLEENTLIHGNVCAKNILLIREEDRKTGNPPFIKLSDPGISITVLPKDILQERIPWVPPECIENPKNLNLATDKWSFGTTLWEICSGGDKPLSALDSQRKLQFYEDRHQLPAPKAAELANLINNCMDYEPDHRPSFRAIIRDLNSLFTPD
T2 sequence (O60674 536-812 V617F/W659A/W777A/F794H): as the sequence (O60674 536-812 W659A/W777A/F794H) above, with V82F counted along it
T4 sequence (O60674 808-1132): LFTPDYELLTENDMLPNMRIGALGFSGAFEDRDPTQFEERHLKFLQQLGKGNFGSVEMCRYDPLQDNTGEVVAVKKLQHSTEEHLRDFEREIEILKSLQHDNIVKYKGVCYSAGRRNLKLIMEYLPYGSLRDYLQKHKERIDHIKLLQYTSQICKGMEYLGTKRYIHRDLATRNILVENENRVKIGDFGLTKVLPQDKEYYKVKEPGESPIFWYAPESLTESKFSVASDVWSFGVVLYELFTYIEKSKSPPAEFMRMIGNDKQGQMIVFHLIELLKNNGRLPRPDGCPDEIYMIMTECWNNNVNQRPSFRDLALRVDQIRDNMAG
T1 sequence (O60674 826-1132): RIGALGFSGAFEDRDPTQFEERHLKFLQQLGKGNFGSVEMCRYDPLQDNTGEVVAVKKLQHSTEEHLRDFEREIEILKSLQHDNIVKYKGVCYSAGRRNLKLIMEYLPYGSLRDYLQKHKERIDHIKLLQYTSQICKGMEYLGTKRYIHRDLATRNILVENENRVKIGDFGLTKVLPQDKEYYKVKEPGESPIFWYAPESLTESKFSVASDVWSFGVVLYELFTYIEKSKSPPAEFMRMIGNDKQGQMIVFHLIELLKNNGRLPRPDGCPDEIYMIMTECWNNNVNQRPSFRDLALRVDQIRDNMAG

| Compound | IC50 [1] | IC50 [2] | IC50 [3] | IC50 [4] |
| --- | --- | --- | --- | --- |
| [2H]C([2H])([2H])n1c(=O)n2c3c4c(c(-c5cn(CC6CC6)nc5F)[nH]c4ncc31)-c1ccc(cc1)OCC/C=C/C[C@]1(NC(=O)[C@H]3C[C@H]3F)CC[C@@H]2CC1 [Example 14, (1R,2R)-N-((3^1S,3^4s,E)-2^7-(1-(cyclopropylmethyl)-3-fluoro-1H-pyrazol-4-yl)-2^3-(methyl-d3)-2^2-oxo-2^1,2^2,2^3,2^6-tetrahydro-9-oxa-2(8,1)-imidazo[4,5-d]pyrrolo[2,3-b]pyridina-1(1,4)-benzena-3(1,4)-cyclohexanacyclononaphan-5-en-3^4-yl)-2-fluorocyclopropane-1-carboxamide] | 0.5 to 1 µM and > 1 µM | ≤ 0.01 µM | ≤ 0.01 µM | 0.5 to 1 µM and > 1 µM |
| N-((3^1r,3^4s)-2^7-(3-Methoxy-1-methyl-1H-pyrazol-4-yl)-2^3-(methyl-d3)-2^2-oxo-2^1,2^2,2^3,2^6-tetrahydro-9-oxa-2(8,1)-imidazo[4,5-d]pyrrolo[2,3-b]pyridina-1(1,4)-benzena-3(1,4)-cyclohexanacyclononaphane-3^4-yl)cyclopropanecarboxamide [Example 4] | > 1 µM | ≤ 0.01 µM | ≤ 0.01 µM | > 1 µM |
| [2H]C([2H])([2H])n1c(=O)n2c3c4c(c(-c5cn(CC)nc5F)[nH]c4ncc31)-c1ccc(cc1)OCC/C=C/C[C@]1(NC(=O)[C@H]3C[C@H]3F)CC[C@@H]2CC1 [Example 12, (1R,2R)-N-((3^1S,3^4s,E)-2^7-(1-ethyl-3-fluoro-1H-pyrazol-4-yl)-2^3-(methyl-d3)-2^2-oxo-2^1,2^2,2^3,2^6-tetrahydro-9-oxa-2(8,1)-imidazo[4,5-d]pyrrolo[2,3-b]pyridina-1(1,4)-benzena-3(1,4)-cyclohexanacyclononaphan-5-en-3^4-yl)-2-fluorocyclopropane-1-carboxamide] | 0.5 to 1 µM and > 1 µM | ≤ 0.01 µM | ≤ 0.01 µM | 0.5 to 1 µM and > 1 µM |
| [2H]C([2H])([2H])n1c(=O)n2c3c4c(c(-c5cn(C(C)C)nc5F)[nH]c4ncc31)-c1ccc(cc1)OCC/C=C/C[C@]1(NC(=O)[C@H]3C[C@H]3F)CC[C@@H]2CC1 [Example 13, (1R,2R)-2-fluoro-N-((3^1S,3^4s,E)-2^7-(3-fluoro-1-isopropyl-1H-pyrazol-4-yl)-2^3-(methyl-d3)-2^2-oxo-2^1,2^2,2^3,2^6-tetrahydro-9-oxa-2(8,1)-imidazo[4,5-d]pyrrolo[2,3-b]pyridina-1(1,4)-benzena-3(1,4)-cyclohexanacyclononaphan-5-en-3^4-yl)cyclopropane-1-carboxamide] | > 1 µM | ≤ 0.01 µM | ≤ 0.01 µM | > 1 µM |
| [2H]C([2H])([2H])n1c(=O)n2c3c4c(c(-c5cn(C)nc5OC)[nH]c4ncc31)-c1ccc(cc1)C1(/C=C/C[C@]3(NC(=O)C4CC4)CC[C@@H]2CC3)CC1 [Example 6, N-((1′s,4′s,E)-7′-(3-Methoxy-1-methyl-1H-pyrazol-4-yl)-3′-(methyl-d3)-2′-oxospiro[cyclopropane-1,7′-2(8,1)-imidazo[4,5-d]pyrrolo[2,3-b]pyridina-1(1,4)-benzena-3(1,4)-cyclohexanacycloheptaphanen]-5′-en-4′-yl)cyclopropanecarboxamide] | > 1 µM | ≤ 0.01 µM | ≤ 0.01 µM | > 1 µM |
| [2H]C([2H])([2H])n1c(=O)n2c3c4c(c(-c5cn(C)nc5OC)[nH]c4ncc31)-c1ccc(cc1)OCCC/C=C/C[C@]1(NC(=O)C3CC3)CC[C@@H]2CC1 [Example 3, N-((3^1s,3^4s,E)-2^7-(3-Methoxy-1-methyl-1H-pyrazol-4-yl)-2^3-(methyl-d3)-2^2-oxo-2^1,2^2,2^3,2^6-tetrahydro-10-oxa-2(8,1)-imidazo[4,5-d]pyrrolo[2,3-b]pyridina-1(1,4)-benzena-3(1,4)-cyclohexanacyclodecaphan-5-en-3^4-yl)cyclopropanecarboxamide] | > 1 µM | ≤ 0.01 µM | ≤ 0.01 µM | > 1 µM |
